Key:
[1] = target: human FPR1 (Homo sapiens (Human), UniProt P21462); assay: FPR1 cyclic adenosine monophosphate (cAMP) assay; assay type: cell-based; details: CHO cells overexpressing human FPR1; forskolin 10 µM; inhibition of cAMP production; read-out: hFPR1 cAMP EC50
Summary of the method: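 Human FPR1-expressing CHO cells were used at 4,000 per well, with compound at 0.020 nM–100 µM in 1% DMSO. Potency came from a 4-parameter logistic fit.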

[2] = target: human FPR2 (Homo sapiens (Human), UniProt P25090); assay: FPR2 cyclic adenosine monophosphate (cAMP) assay; assay type: cell-based; details: CHO cells overexpressing human FPR2; forskolin 5 µM; inhibition of cAMP production; read-out: hFPR2 cAMP2 EC50
Chain of human FPR2 (P25090 whole entry): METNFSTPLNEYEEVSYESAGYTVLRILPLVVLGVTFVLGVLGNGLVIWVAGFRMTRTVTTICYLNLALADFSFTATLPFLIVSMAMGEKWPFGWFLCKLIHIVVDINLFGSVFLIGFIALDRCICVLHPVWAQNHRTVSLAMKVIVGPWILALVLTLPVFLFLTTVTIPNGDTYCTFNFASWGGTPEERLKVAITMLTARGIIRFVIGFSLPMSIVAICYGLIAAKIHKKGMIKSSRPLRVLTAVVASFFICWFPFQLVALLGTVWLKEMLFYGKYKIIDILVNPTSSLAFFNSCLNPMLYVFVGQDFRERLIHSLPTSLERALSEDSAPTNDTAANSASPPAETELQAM
Summary of the method: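 Inhibition of forskolin-driven (5 µM) cAMP, with 200 µM IBMX, measured in human FPR2-expressing CHO cells, 2,000 per well, 30 min at room temperature; compounds tested 0.020 nM to 100 µM in 1% DMSO. HTRF 665/590 ratio converted to cAMP via calibration curve, then 4-parameter fit.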

Chain of human FPR1 (P21462 whole entry): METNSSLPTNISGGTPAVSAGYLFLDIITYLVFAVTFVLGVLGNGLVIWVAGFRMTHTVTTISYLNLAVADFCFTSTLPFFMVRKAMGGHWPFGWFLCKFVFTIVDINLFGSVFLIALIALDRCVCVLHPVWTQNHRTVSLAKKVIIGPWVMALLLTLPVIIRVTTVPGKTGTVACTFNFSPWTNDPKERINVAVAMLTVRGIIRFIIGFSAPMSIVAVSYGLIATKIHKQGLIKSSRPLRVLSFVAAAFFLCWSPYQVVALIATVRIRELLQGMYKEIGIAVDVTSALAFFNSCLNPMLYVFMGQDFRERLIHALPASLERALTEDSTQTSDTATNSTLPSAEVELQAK

Row | SMILES | EC50 [1] [nM] | EC50 [2] [nM]
1 | COc1cc(F)c([C@@H]2CN(c3nccc(NCC(C)(C)O)c3C(F)(F)F)C(=O)[C@H]2NC(=O)c2ccc(Cl)cc2)c(F)c1 [Example 166] | 2300 | 4.3
2 | COc1cc(F)c([C@@H]2CN(c3ccnc(N4C[C@@H]5C[C@H]4CN5C)c3C(F)(F)F)C(=O)[C@H]2NC(=O)c2ccc(OC(F)F)cc2)c(F)c1 [Example 65] | 180 | 1.7
3 | COc1cc(F)c([C@@H]2CN(c3cccn(CCO)c3=O)C(=O)[C@H]2NC(=O)c2ccc(OC(F)F)cc2)c(F)c1 [Example 219] | 140 | 5.8
4 | COc1cc(F)c([C@@H]2CN(c3cccn(CC(O)CO)c3=O)C(=O)[C@H]2NC(=O)c2ccc(Cl)cc2)c(F)c1 (stereo partly drawn) [Example 677] | 230 | 5.3
5 | COCCn1cccc(N2C[C@@H](c3c(F)cc(OC)cc3F)[C@H](NC(=O)c3ccc(C)cc3)C2=O)c1=O [Example 292] | 950 | 8.7
6 | COc1cc(F)c([C@@H]2CN(c3cccn4cc(CO)nc34)C(=O)[C@H]2NC(=O)c2ccc(Cl)cc2)c(F)c1 [Example 494] | 440 | 3.4
7 | COc1cc(F)c([C@H]2[C@H](NC(=O)c3ccc(OC(F)F)cc3)C(=O)N(c3cccc(C4CCCN(C)C4)n3)[C@H]2C)c(F)c1 (stereo partly drawn) [Example 512] | 2100 | 3.7
8 | COc1cc(F)c([C@@H]2CN(c3cccn(CC(C)O)c3=O)C(=O)[C@H]2NC(=O)c2ccc(OC(F)(F)F)cc2)c(F)c1 (stereo partly drawn) [Example 89] | 45 | 2.4
9 | COc1cc(F)c([C@@H]2CN(c3c(C)ccn(C4CC4)c3=O)C(=O)[C@H]2NC(=O)c2ccc(OC(F)F)cc2)c(F)c1 [Example 351] | 5 | 8
10 | COc1cc(F)c([C@@H]2CN(c3cccn(CC4CC(F)(F)C4)c3=O)C(=O)[C@H]2NC(=O)c2ccc(OC(F)(F)F)cc2)c(F)c1 [Example 269] | 27 | 7.7
11 | COCCn1cccc(N2C(=O)[C@@H](NC(=O)c3ccc(OC(F)(F)F)cc3)[C@H](c3c(F)cc(OC)cc3F)[C@@H]2C)c1=O [Example 100] | 22 | 2.7
12 | COc1cc(F)c([C@@H]2CN(c3cnn4c3OCCC4)C(=O)[C@H]2NC(=O)c2ccc(OC(F)(F)F)cc2)c(F)c1 [Example 598] | 590 | 6.2
13 | COc1cc(F)c([C@@H]2CN(c3cccn(CCO)c3=O)C(=O)[C@H]2NC(=O)c2ccc(C)cc2)c(F)c1 [Example 273] | 1400 | 7.8
14 | COc1cc(F)c([C@@H]2CN(c3c(C)ccn(CC(C)O)c3=O)C(=O)[C@H]2NC(=O)c2ccc(OC(F)(F)F)cc2)c(F)c1 (stereo partly drawn) [Example 359] | 6 | 4.5
15 | COCCn1ccc(C)c(N2C[C@@H](c3ccc(Cl)cc3)[C@H](NC(=O)c3ccc(OC(F)F)cc3)C2=O)c1=O [Example 340] | 1.1 | 23
16 | COc1ccc([C@@H]2CN(c3c(C)ccn(CC(F)F)c3=O)C(=O)[C@H]2NC(=O)c2ccc(OC(F)(F)F)cc2)c(F)c1 [Example 182] | 1.8 | 4.8
17 | COc1cc(N2CCN(C)CC2)nc(N2C[C@@H](c3c(F)cc(OC)cc3F)[C@H](NC(=O)c3ccc(OC(F)F)cc3)C2=O)c1 [Example 35] | > 10000 | 3.1
18 | COc1cc(F)c([C@@H]2CN(c3cccn(CC(O)CO)c3=O)C(=O)[C@H]2NC(=O)c2ccc(OC(F)F)cc2)c(F)c1 (stereo partly drawn) [Example 678] | 92 | 11
19 | COCCn1cncc(N2C[C@@H](c3c(F)cc(OC)cc3F)[C@H](NC(=O)c3ccc(OC(F)F)cc3)C2=O)c1=O [Example 370] | 1400 | 3.7
20 | COc1ccc([C@@H]2CN(c3cccn(CCO)c3=O)C(=O)[C@H]2NC(=O)c2ccc(OC(F)F)cc2)c(F)c1 [Example 143] | 53 | 3.6
21 | COc1cc(F)c([C@@H]2CN(c3cccn(CC(F)F)c3=O)C(=O)[C@H]2NC(=O)c2ccc(C#N)cc2)c(F)c1 [Example 321] | 570 | 10
22 | COc1cc(F)c([C@@H]2CN(c3cccn(CC(OC)C(F)(F)F)c3=O)C(=O)[C@H]2NC(=O)c2ccc(OC(F)F)cc2)c(F)c1 (stereo partly drawn) [Example 161] | 3.4 | 4.1
23 | COCCn1ccnc1N1C[C@@H](c2c(F)cc(OC)cc2F)[C@H](NC(=O)c2ccc(Cl)cc2)C1=O [Example 650] | 1700 | 11
24 | COc1cc(F)c([C@@H]2CN(c3cccn(CC(C)O)c3=O)C(=O)[C@H]2NC(=O)c2ccc(OC(F)F)cc2)c(F)c1 (stereo partly drawn) [Example 104] | 120 | 2.9
25 | COc1cc(F)c([C@@H]2CN(c3cnn4c3OCCC4)C(=O)[C@H]2NC(=O)c2ccc(Cl)cc2)c(F)c1 [Example 596] | 860 | 43.7
26 | COc1cc(F)c([C@@H]2CN(c3cncnc3OC3CCOCC3)C(=O)[C@H]2NC(=O)c2ccc(Cl)cc2)c(F)c1 [Example 543] | 1900 | 6.9
27 | COc1ccc([C@@H]2CN(c3cccn(CC(C)O)c3=O)C(=O)[C@H]2NC(=O)c2ccc(Cl)cc2)cc1 (stereo partly drawn) [Example 391] | 36 | 5.5

— US20230348426A1, “OXOPYRROLIDINE FPR2 AGONISTS” (Bristol-Myers Squibb Company, priority 2020, published 2023)
